{"source": "patent US11592445B2", "about": "“OLFR90 specificity and methods of detection” (THE JOHNS HOPKINS UNIVERSITY, priority 2016, dated 2023)", "data": [{"target": "T1, Olfr90 (Mus musculus, UniProt Q0VEL5)", "T1 construct": "Flag; expressed in transfected cells; host or cells: HEK293T", "T1 sequence (Q0VEL5 1-310)": "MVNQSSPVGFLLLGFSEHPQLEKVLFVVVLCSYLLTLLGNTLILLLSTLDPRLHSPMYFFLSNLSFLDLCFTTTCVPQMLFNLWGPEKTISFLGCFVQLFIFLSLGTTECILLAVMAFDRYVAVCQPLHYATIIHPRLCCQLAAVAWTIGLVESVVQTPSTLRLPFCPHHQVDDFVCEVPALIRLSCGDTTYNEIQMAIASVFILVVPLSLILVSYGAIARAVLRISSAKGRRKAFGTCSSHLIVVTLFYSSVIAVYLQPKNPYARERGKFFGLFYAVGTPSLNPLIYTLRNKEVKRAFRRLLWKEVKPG", "test": "Luciferase reporter assay for ligand screening, HEK293T cells transfected with Lucy-Olfr90", "type": "cell-based", "conditions": "FIG. 2: p<0.0005 for all conditions vs 0 mM", "from_the_text": "HEK293T cells were transfected with Lucy-Olfr90 and two luciferase constructs, one of which was constitutively active (Renilla) while the other was only activated by an increase in intracellular cyclic AMP due to ligand binding (Firefly).\nA luciferase reporter assay was employed for ligand screening (FIG. 1). In this assay, Olfr90 may be transfected into HEK293T cells along with a firefly luciferase construct whose activity is dependent upon elevated [cAMP]i. Upon binding its ligand, the expressed Olfr90 increases [cAMP]i, leading to increased transcription of firefly luciferase (FIG. 1). A constitutively active luciferase (Renilla) is co-transfected; therefore, the ratio of Firefly/Renilla is a measure of OR activation.\nIn this assay, it is essential that the Olfr90 is on the cell surface. […] A novel N-terminal tag which allows for surface trafficking of the majority of the renal Olfr90 was used. This tag is a leucine rich 17 amino acid sequence (“Lucy” tag) that not only aids in trafficking to the surface, but is cleaved before the Olfr90 reaches the cell surface.\nIn HEK cells or hana3 cells, Olfr90 will be expressed along with along with a firefly luciferase construct whose activity is dependent upon elevated [cAMP]i. Olfr90 may be transfected with or without various chaperones (Ric8b, RTP1S, REEP, etc.) and with or without various tags (Rho, Flag, Lucy, etc.). Upon binding its ligand, the expressed OR increases [cAMP]i, leading to increased transcription of firefly luciferase. A constitutively active luciferase (Renilla) is co-transfected; therefore, the ratio of Firefly/Renilla is a measure of OR activation.", "values": [{"smiles": "C=CC(O)CCCCC", "note": "(stereo not drawn) [Odorant 1-Octen-3-ol, 1-Octen-3-ol]", "Olfr90 response (luciferase output, Firefly/Renilla ratio) to isolated chemicals": "responded in a dose dependent manner"}, {"smiles": "C=CC(C)(O)CCC=C(C)C", "note": "(stereo not drawn) [Linalool]", "Olfr90 response (luciferase output, Firefly/Renilla ratio) to isolated chemicals": "responded in a dose dependent manner"}, {"smiles": "CCCC1CCSC(C)O1", "note": "(stereo not drawn) [MPOT, 2-Methyl-4-Propyl-3,1-Oxathiane]", "Olfr90 response (luciferase output, Firefly/Renilla ratio) to isolated chemicals": "responded in a dose dependent manner"}]}]}
